This experiment has as its target T1, KCNT1 (KNa1.1, Slack) (Homo sapiens, UniProt Q5JUK3).
T1 construct: expressed in transfected cells; host or cells: HEK-TREX (tetracycline-inducible HEK cell line)
T1 sequence (Q5JUK3 1-1230): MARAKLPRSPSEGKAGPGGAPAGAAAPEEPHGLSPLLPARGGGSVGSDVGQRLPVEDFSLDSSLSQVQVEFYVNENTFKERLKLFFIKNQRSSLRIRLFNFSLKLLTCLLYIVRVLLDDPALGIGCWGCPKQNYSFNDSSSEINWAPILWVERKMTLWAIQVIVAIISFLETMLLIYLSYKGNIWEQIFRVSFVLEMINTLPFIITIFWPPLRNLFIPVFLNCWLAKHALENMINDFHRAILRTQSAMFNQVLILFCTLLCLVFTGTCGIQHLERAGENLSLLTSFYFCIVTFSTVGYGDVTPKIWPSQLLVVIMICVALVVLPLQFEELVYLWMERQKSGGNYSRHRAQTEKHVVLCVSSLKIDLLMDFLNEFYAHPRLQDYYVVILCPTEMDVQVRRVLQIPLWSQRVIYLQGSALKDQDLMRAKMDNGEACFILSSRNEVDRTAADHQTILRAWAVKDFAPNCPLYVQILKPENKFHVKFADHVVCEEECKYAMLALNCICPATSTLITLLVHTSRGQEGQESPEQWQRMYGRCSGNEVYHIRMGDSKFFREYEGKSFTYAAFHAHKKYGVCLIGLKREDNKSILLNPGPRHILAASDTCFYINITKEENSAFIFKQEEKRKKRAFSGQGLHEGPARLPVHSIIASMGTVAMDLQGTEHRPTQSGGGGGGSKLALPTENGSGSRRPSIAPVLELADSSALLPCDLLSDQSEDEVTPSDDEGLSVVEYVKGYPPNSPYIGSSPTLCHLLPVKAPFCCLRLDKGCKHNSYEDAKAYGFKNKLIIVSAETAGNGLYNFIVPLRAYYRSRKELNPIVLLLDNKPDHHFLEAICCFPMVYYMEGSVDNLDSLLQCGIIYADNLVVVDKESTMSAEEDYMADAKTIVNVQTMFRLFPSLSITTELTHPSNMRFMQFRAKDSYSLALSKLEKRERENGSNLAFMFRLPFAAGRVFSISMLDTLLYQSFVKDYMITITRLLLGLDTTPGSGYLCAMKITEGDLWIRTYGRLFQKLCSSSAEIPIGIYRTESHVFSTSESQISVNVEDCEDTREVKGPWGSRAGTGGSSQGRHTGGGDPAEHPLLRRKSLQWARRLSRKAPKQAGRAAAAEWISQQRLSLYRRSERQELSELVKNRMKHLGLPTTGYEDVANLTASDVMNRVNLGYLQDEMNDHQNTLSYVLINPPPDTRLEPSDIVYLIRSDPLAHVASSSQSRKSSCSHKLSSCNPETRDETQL
The experiment is described as follows: KCNT1 patch clamp assay (SyncroPatch 384PE automated patch clamp). The following applies: tetracycline inducible HEK-TREX cell line; perforated patch; step from −80 mV to 0 mV; room temperature; read-out: KCNT1-WT IC50. Type of experiment: cell-based. As to the method:
KCNT1—Patch Clamp Assay Inhibition of KCNT1 (KNa1.1, Slack) was evaluated using a tetracycline inducible cell line (HEK-TREX). Currents were recorded using the SyncroPatch 384PE automated, patch clamp system. Pulse generation and data collection were performed with PatchController384 V1.3.0 and DataController384 V1.2.1 (Nanion Technologies). The access resistance and apparent membrane capacitance were estimated using built-in protocols. Current were recorded in perforated patch mode (10 μM escin) from a population of cells. […] The cells were allowed to recover in the cell hotel prior to experimentation. Currents were recorded at room temperature. […] The extracellular solution was used as the wash, reference and compound delivery solution. […] Escin is made at a 5 mM stock in water, aliquoted, and stored at −20° C. The compound plate was created at 2× concentrated in the extracellular solution. The compound was diluted to 1:2 when added to the recording well. The amount of DMSO in the extracellular solution was held constant at the level used for the highest tested concentration. A holding potential of −80 mV with a 100 ms step to 0 mV was used. […] The average mean current from 3 sweeps was calculated and the % inhibition of each compound was calculated. The % Inhibition as a function of the compound concentration was fit with a Hill equation to derive IC50, slope, min and max parameters.
A general note: In patch-clamp work, channel activity is measured electrically.

Some results are limits rather than exact numbers.

In general, IC50 refers to the concentration needed to halve the response being measured.

Take `CCOc1cc(-c2noc([C@H](C)NC(=O)OC(C)(C)C)n2)ccn1` [Compound 290, tert-butyl (S)-(1-(3-(2-ethoxypyridin-4-yl)-1,2,4-oxadiazol-5-yl)ethyl)carbamate]: the IC50 was not above 1000 nM.

On to `Cc1nn(C(C)C)cc1C(=O)NC(C)c1nc(-c2ccc(Cl)cc2)no1` (stereo not shown) [Compound 97], for which the IC50 was not above 1000 nM.

As for `C[C@@H](NC(=O)c1cc(C2CC2)nn1C)c1nc(-c2cccc(F)c2)no1` (single isomer, unassigned) [Compound 93], the IC50 fell in the range of 1000 to 20000 nM.

`C[C@H](NC(=O)OC(C)(C)C)c1nc(-c2ccnc(OC3CC3)c2)no1` [Compound 292, tert-butyl (S)-(1-(3-(2-cyclopropoxypyridin-4-yl)-1,2,4-oxadiazol-5-yl)ethyl)carbamate]: the IC50 was in the range of 1000 to 20000 nM.

As for `C[C@H](NC(=O)c1cc(C(F)(F)F)nn1C(F)F)c1nc(-c2cccc(F)c2)no1` [Compound 127], the IC50 was not above 1000 nM.

In the case of `CC(NC(=O)c1cc(C(F)(F)F)nn1C)c1nc(-c2cccc(C(=O)N(C)C)c2)no1` (stereo not shown) [Compound 183, N-(1-(3-(3-(dimethylcarbamoyl)phenyl)-1,2,4-oxadiazol-5-yl)ethyl)-1-methyl-3-(trifluoromethyl)-1H-pyrazole-5-carboxamide], the 50% inhibitory concentration (IC50) was not below 20000 nM.

For the compound `C[C@H](NC(=O)c1cc(C(F)(F)F)nn1C)c1nc(-c2ccnc(C#N)c2)no1` [Compound 267, (S)—N-(1-(3-(2-cyanopyridin-4-yl)-1,2,4-oxadiazol-5-yl)ethyl)-1-methyl-3-(trifluoromethyl)-1H-pyrazole-5-carboxamide], the IC50 lay in the range of 1000 to 20000 nM.

`CC[C@H](NC(=O)c1cc(C2CC2)nn1C)c1nc(-c2cccc(F)c2)no1` [Compound 60]: the IC50 was not above 1000 nM.

Turning to `C[C@H](NC(=O)c1cn(C)nc1C1CCC1)c1nc(-c2cccc(F)c2)no1` [Compound 155], the IC50 lay in the range of 1000 to 20000 nM.

`Cc1nn(CC(F)F)cc1C(=O)N[C@@H](C)c1nc(-c2cccc(F)c2)no1` [Compound 163]: the IC50 was in the range of 1000 to 20000 nM.

With `CC(NC(=O)c1cc(C2CC2)nn1C)c1nc(-c2c(F)cccc2F)no1` (stereo not shown) [Compound 7], the IC50 was not below 20000 nM.

As for `C[C@H](NC(=O)c1cn(C)nc1C(F)F)c1nc(-c2cccc(F)c2)no1` [Compound 188, (S)-3-(difluoromethyl)-N-(1-(3-(3-fluorophenyl)-1,2,4-oxadiazol-5-yl)ethyl)-1-methyl-1H-pyrazole-4-carboxamide], the IC50 is 1000 to 20000 nM.

As to `Cc1ccnc(-c2noc([C@H](C)NC(=O)OC(C)(C)C)n2)c1` [Compound 285, tert-butyl (S)-(1-(3-(4-methylpyridin-2-yl)-1,2,4-oxadiazol-5-yl)ethyl)carbamate], the IC50 was not below 20000 nM.

In the case of `CC[C@H](NC(=O)c1cc(-c2ccccc2)nn1C)c1nc(-c2ccnc(C)c2)no1` [Compound 226, (S)-1-methyl-N-(1-(3-(2-methylpyridin-4-yl)-1,2,4-oxadiazol-5-yl)propyl)-3-phenyl-1H-pyrazole-5-carboxamide], the IC50 is not above 1000 nM.

Turning to `COC[C@@H](NC(=O)c1cc(C(F)(F)F)nn1C)c1nc(-c2cccc(C)c2)no1` (single isomer, unassigned) [Compound 80], the IC50 was not above 1000 nM.

For the compound `C[C@H](NC(=O)c1cn(C)nc1C(F)F)c1nc(-c2ccnc(C(F)(F)F)c2)no1` [Compound 235], the half-maximal inhibitory concentration (IC50) was not above 1000 nM.

Take `C[C@H](NC(=O)c1cn(C)nc1C(F)(F)F)c1nc(-c2cccc(F)c2)no1` [Compound 160]: the IC50 was in the range of 1000 to 20000 nM.

Take `Cc1cccc(-c2noc(C(C)NC(=O)c3cc(C(C)C)nn3C)n2)c1` (stereo not shown) [Compound 10]: the IC50 was not above 1000 nM.

As for `C[C@H](NC(=O)c1cc(C(F)(F)F)nn1C)c1nc(-c2ccnc(CO)c2)no1` [Compound 258, N-[(1S)-1-[3-[2-(hydroxymethyl)-4-pyridyl]-1,2,4-oxadiazol-5-yl]ethyl]-2-methyl-5-(trifluoromethyl)pyrazole-3-carboxamide], the IC50 lay in the range of 1000 to 20000 nM.

Regarding `Cn1nc(C2CC2)cc1C(=O)NC(C)(C)c1nc(-c2cccc(F)c2)no1` [Compound 50], the half-inhibitory concentration (IC50) was in the range of 1000 to 20000 nM.

`C[C@@H](NC(=O)OC(C)(C)C)c1nc(-c2ccnc(C(F)(F)F)c2)no1` [Compound 296, tert-butyl (R)-(1-(3-(2-(trifluoromethyl)pyridin-4-yl)-1,2,4-oxadiazol-5-yl)ethyl)carbamate]: the IC50 lay in the range of 1000 to 20000 nM.

`Cc1cccc(-c2noc(C(C)NC(=O)c3cnn(C(C)C)c3C)n2)c1` (stereo not shown) [Compound 59]: the IC50 was not below 20000 nM.

With `Cc1nn(C(C)(C)C)cc1C(=O)N[C@@H](C)c1nc(-c2cccc(F)c2)no1` [Compound 150], the IC50 was not above 1000 nM.

`CC[C@H](NC(=O)c1cc(C(F)(F)F)nn1CC(F)F)c1nc(-c2cccc(F)c2)no1` [Compound 111]: the concentration for half-maximal inhibition (IC50) is not above 1000 nM.

For `C[C@H](NC(=O)c1cc(C(F)(F)F)nn1Cc1ccccc1)c1nc(-c2ccnc(C(F)(F)F)c2)no1` [Compound 241, (S)-1-benzyl-3-(trifluoromethyl)-N-(1-(3-(2-(trifluoromethyl)pyridin-4-yl)-1,2,4-oxadiazol-5-yl)ethyl)-1H-pyrazole-5-carboxamide], the IC50 was not above 1000 nM.

In the case of `CC(NC(=O)c1cc(C(F)(F)F)nn1C)c1nc(-c2cccc(S(N)(=O)=O)c2)no1` (stereo not shown) [Compound 180, 1-methyl-N-(1-(3-(3-sulfamoylphenyl)-1,2,4-oxadiazol-5-yl)ethyl)-3-(trifluoromethyl)-1H-pyrazole-5-carboxamide], the IC50 was not below 20000 nM.

For the compound `CC(NC(=O)c1cc(C(F)(F)F)nn1C)c1nc(-c2cccc(C(N)=O)c2)no1` (stereo not shown) [Compound 193, N-(1-(3-(3-carbamoylphenyl)-1,2,4-oxadiazol-5-yl)ethyl)-1-methyl-3-(trifluoromethyl)-1H-pyrazole-5-carboxamide], the IC50 was not below 20000 nM.

For the compound `CC(C)[C@@H](NC(=O)c1cc(C2CC2)nn1C)c1nc(-c2cccc(F)c2)no1` [Compound 62], the half-maximal inhibitory concentration (IC50) is 1000 to 20000 nM.

On to `CC[C@H](NC(=O)c1cc(C(F)(F)F)nn1C1CC1)c1nc(-c2cccc(F)c2)no1` [Compound 113], for which the IC50 was not above 1000 nM.

Consider `Cc1nn(C2CCOCC2)cc1C(=O)N[C@@H](C)c1nc(-c2cccc(F)c2)no1` [Compound 152], for which the IC50 fell in the range of 1000 to 20000 nM.

Turning to `C[C@H](NC(=O)c1cc(C(F)(F)F)nn1C)c1nc(-c2ccnc(N3CC(F)(F)C3)c2)no1` [Compound 222, (S)—N-(1-(3-(2-(3,3-difluoroazetidin-1-yl)pyridin-4-yl)-1,2,4-oxadiazol-5-yl)ethyl)-1-methyl-3-(trifluoromethyl)-1H-pyrazole-5-carboxamide], the IC50 is not above 1000 nM.

On to `C[C@H](NC(=O)c1ccnn1C1CCCC1)c1nc(-c2ccnc(C3CC3)c2)no1` [Compound 270], for which the IC50 was not above 1000 nM.

On to `C[C@H](NC(=O)c1cn(C)nc1C1CCOCC1)c1nc(-c2cccc(F)c2)no1` [Compound 166], for which the IC50 lay in the range of 1000 to 20000 nM.

On to `C[C@H](NC(=O)OC(C)(C)C)c1nc(-c2ccnc(C(F)(F)F)c2)no1` [Compound 295, tert-butyl (S)-(1-(3-(2-(trifluoromethyl)pyridin-4-yl)-1,2,4-oxadiazol-5-yl)ethyl)carbamate], for which the IC50 was not above 1000 nM.

These data come from patent publication US20220259193A1, “KCNT1 INHIBITORS AND METHODS OF USE” (Praxis Precision Medicines, Inc., priority 2019, published 2022).
